Results from US9920073B2, “Compositions useful for inhibiting HIV-1 infection and methods using same” (Drexel University, priority 2013, dated 2018).
Read-outs that look alike come from different tables or passages of the source.

Experiments:
Assay in all cases: microbe, parasite or virus in culture
Format in all cases: cell-based
[1] = system: HIV-1YU-2
[2] = system: amphotropic murine leukemia virus (AMLV); conditions: specificity control
[3] = system: HIV-1HxBc2; conditions: Human immunodeficiency virus 1, read-out: IC50 HxBc2
[4] = system: HIV-1JR-CSF; conditions: Human immunodeficiency virus 1, read-out: IC50 JR-CSF
[5] = Human immunodeficiency virus 1, read-out: IC50 YU-2, single round infection assay
[6] = Murine leukemia virus, read-out: IC50 AMLV, Table 2 screening results

Cc1cc(C)nc(SCC(=O)N2CCN(C(=O)c3ccccc3)CC2)n1 [Compound 34]
IC50 [1, 5]: 19.4 µM | IC50 [2, 6]: > 50 µM

O=C(CSc1ncnc2sccc12)N1CCN(C(=O)c2cccs2)CC1 [Compound 28]
IC50 [1, 5]: 1.6 ± 0.4 µM | IC50 [2, 6]: > 50 µM

CCN(CC)S(=O)(=O)N1CCN(C(=O)C(=O)c2c(C)[nH]c3ccccc23)CC1 [Compound 48]
IC50 [1, 5]: > 50 µM | IC50 [2, 6]: > 50 µM

O=C(COc1cccc(Br)c1)N1CCN(C(=O)c2ccccc2)CC1 [Compound 6]
IC50 [1, 5]: > 300 µM | IC50 [2, 6]: > 300 µM

O=C(c1ccccc1)N1CCN(S(=O)(=O)c2ccc3c(c2)CCCC3)CC1 [Compound 13]
IC50 [1, 5]: 117 µM | IC50 [2, 6]: 197 µM

O=C(CSC1=Nc2ccccc2CS1)N1CCN(C(=O)c2cccs2)CC1 [Compound 41]
IC50 [1, 5]: > 50 µM | IC50 [2, 6]: > 50 µM

CCc1cc(C(=O)N2CCN(C(=O)c3ccccc3)CC2)sc1C [Compound 5]
IC50 [1, 5]: > 300 µM | IC50 [2, 6]: > 300 µM

O=C(c1ccccn1)N1CCN(S(=O)(=O)c2ccc3ccccc3c2)CC1 [Compound 1]
IC50 [1, 5]: > 300 µM | IC50 [2, 6]: > 300 µM

O=C(c1cc(-c2ccc(Cl)cc2)on1)N1CCN(S(=O)(=O)c2ccccc2F)CC1 [Compound 14]
IC50 [1, 5]: > 300 µM | IC50 [2, 6]: > 300 µM

COc1ccc(OC)c(/C=C/C(=O)N2CCN(C(=O)C3CC3)CC2)c1 [Compound 45]
IC50 [1, 5]: > 50 µM | IC50 [2, 6]: > 50 µM

O=C(c1ccccn1)N1CCN(S(=O)(=O)c2ccc3c(c2)OCCO3)CC1 [Compound 3]
IC50 [1, 5]: > 300 µM | IC50 [2, 6]: > 300 µM

CC(C)n1ncc2c(C(=O)N3CCN(C(=O)c4ccccc4)CC3)cc(-c3ccco3)nc21 [Compound 37]
IC50 [1, 5]: > 50 µM | IC50 [2, 6]: > 50 µM

Cc1c(C)c(C)c(S(=O)(=O)N2CCN(C(=O)c3cccnc3O)CC2)c(C)c1C [Compound 21]
IC50 [1, 5]: > 300 µM | IC50 [2, 6]: > 300 µM

Cc1ncn(-c2ncc(F)c3c(C(=O)C(=O)N4CC5C=NN(c6nnnn6-c6ccccc6)C5C4)c[nH]c23)n1 (stereo not shown) [SC39, 1-(4-fluoro-7-(3-methyl-1H-1,2,4-triazol-1-yl)-1H-pyrrolo[2,3-c]pyridin-3-yl)-2-(1-(1-phenyl-1H-tetrazol-5-yl)-3a,4,6,6a-tetrahydropyrrolo[3,4-c]pyrazol-5(1H)-yl)ethane-1,2-dione]
IC50 [3]: 35.3 ± 9.3 µM

Cc1ccc(C(C)C)c(OCC(=O)N2CCN(C(=O)c3ccccc3)CC2)c1 [Compound 49]
IC50 ([1]; read-out: IC50 YU-2, single round infection assay): > 50 µM | IC50 ([2]; read-out: IC50 AMLV, Table 2 screening results): > 50 µM

CC(C(=O)N1CCCc2ccccc21)N1CCN(C(=O)c2ccccc2)CC1 (stereo not shown) [Compound 25]
IC50 [1, 5]: > 50 µM | IC50 [2, 6]: > 50 µM

O=C(COc1cccc2ccccc12)N1CCN(C(=O)c2ccccc2F)CC1 [Compound 33]
IC50 [1, 5]: > 50 µM | IC50 [2, 6]: > 50 µM

O=C(CSc1nnnn1C1CCCC1)N1CCN(C(=O)c2cccs2)CC1 [Compound 30]
IC50 [1, 5]: > 50 µM | IC50 [2, 6]: > 50 µM

COc1ccc(OC)c(CCC(=O)N2CCN(C(=O)c3cccc(OC(F)F)c3)CC2)c1 [Compound 44]
IC50 [1, 5]: > 50 µM | IC50 [2, 6]: > 50 µM

COc1ccc(O)cc1NCC(=O)N1CCN(S(=O)(=O)c2ccc3c(c2)CCC3)CC1 [Compound 42]
IC50 [1, 5]: > 50 µM | IC50 [2, 6]: > 50 µM

COc1ccc(Cl)cc1C(=O)Cn1c(=O)oc2cc(S(=O)(=O)N3CCOCC3)ccc21 [Compound 43]
IC50 [1, 5]: > 50 µM | IC50 [2, 6]: > 50 µM

O=C(c1ccccc1)N1CCN(C(=O)c2ccc3c4c(cccc24)CC3)CC1 [SC03, (4-benzoylpiperazin-1-yl)(1,2-dihydroacenaphthylen-5-yl)methanone]
IC50 [1, 5]: 13.1 ± 1.7 µM | IC50 [4]: 0.42 ± 0.28 µM

O=C(c1ccccc1)N1CCN(C(=O)c2ccc3c(c2)CCC3)CC1 [Compound 8]
IC50 [1, 5]: > 300 µM | IC50 [2, 6]: > 300 µM

COc1ccc(C(=O)N2CCN(C(=O)COc3cccc4ccccc34)CC2)cc1 [Compound 50]
IC50 [1, 5]: > 50 µM | IC50 [2, 6]: > 50 µM

O=C(CCC(=O)N1CCN(C(=O)c2ccccc2)CC1)c1ccc(Cl)s1 [Compound 2]
IC50 [1, 5]: > 300 µM | IC50 [2, 6]: > 300 µM

O=C(c1ccccc1)N1CCN(C(=O)c2ccc3noc(-c4ccccc4)c3c2)CC1 [Compound 46]
IC50 [1, 5]: > 50 µM | IC50 [2, 6]: > 50 µM

CCOC(=O)N1CCN(C(=O)C(=O)c2c(C)[nH]c3ccccc23)CC1 [Compound 31]
IC50 [1, 5]: > 50 µM | IC50 [2, 6]: > 50 µM

Cc1cccc(C(=O)N2CCN(S(=O)(=O)c3ccc(C)c(C)c3)CC2)c1 [Compound 10]
IC50 [1, 5]: > 300 µM | IC50 [2, 6]: > 300 µM
